Numbers after ± are expanded uncertainties.
Conditions: Liquid, Vibrating wire viscometry

CCc1ccccc1 [ethylbenzene]
Conditions | viscosity [mPa·s]
253.21 K, 5000 kPa | 1.259 ± 0.026
253.22 K, 1000 kPa | 1.211 ± 0.025
253.22 K, 10000 kPa | 1.311 ± 0.028
253.22 K, 35000 kPa | 1.593 ± 0.033
253.23 K, 100 kPa | 1.2 ± 0.025
253.23 K, 20000 kPa | 1.423 ± 0.03
253.23 K, 25000 kPa | 1.479 ± 0.031
253.24 K, 15000 kPa | 1.368 ± 0.029
253.24 K, 30000 kPa | 1.535 ± 0.032
263.2 K, 10000 kPa | 1.11 ± 0.024
263.2 K, 15000 kPa | 1.16 ± 0.025
263.21 K, 5000 kPa | 1.063 ± 0.023
263.21 K, 20000 kPa | 1.207 ± 0.025
263.21 K, 25000 kPa | 1.257 ± 0.026
263.21 K, 35000 kPa | 1.35 ± 0.028
263.22 K, 100 kPa | 1.021 ± 0.022
263.22 K, 1000 kPa | 1.028 ± 0.022
263.22 K, 30000 kPa | 1.304 ± 0.027
273.15 K, 5000 kPa | 0.9249 ± 0.02
273.15 K, 20000 kPa | 1.042 ± 0.022
273.15 K, 30000 kPa | 1.123 ± 0.024
273.15 K, 35000 kPa | 1.163 ± 0.025
273.16 K, 25000 kPa | 1.082 ± 0.023
273.17 K, 1000 kPa | 0.8919 ± 0.019
273.18 K, 10000 kPa | 0.9635 ± 0.021
273.19 K, 15000 kPa | 1.003 ± 0.021
273.21 K, 100 kPa | 0.8832 ± 0.019
283.13 K, 1000 kPa | 0.7784 ± 0.017
283.14 K, 10000 kPa | 0.8372 ± 0.018
283.15 K, 20000 kPa | 0.9017 ± 0.019
283.16 K, 100 kPa | 0.7737 ± 0.017
283.16 K, 5000 kPa | 0.8028 ± 0.017
283.16 K, 30000 kPa | 0.9641 ± 0.021
283.16 K, 35000 kPa | 0.9964 ± 0.021
283.17 K, 15000 kPa | 0.8678 ± 0.019
283.17 K, 25000 kPa | 0.9314 ± 0.02
293.18 K, 5000 kPa | 0.7056 ± 0.015
293.2 K, 1000 kPa | 0.6832 ± 0.015
293.22 K, 25000 kPa | 0.8173 ± 0.018
293.23 K, 15000 kPa | 0.7607 ± 0.017
293.24 K, 10000 kPa | 0.7327 ± 0.016
293.24 K, 20000 kPa | 0.7871 ± 0.017
293.24 K, 30000 kPa | 0.8447 ± 0.018
293.26 K, 100 kPa | 0.6786 ± 0.015
293.26 K, 35000 kPa | 0.8724 ± 0.019
303.15 K, 100 kPa | 0.6033 ± 0.013
303.17 K, 1000 kPa | 0.6074 ± 0.013
303.17 K, 20000 kPa | 0.6989 ± 0.015
303.18 K, 5000 kPa | 0.6268 ± 0.014
303.18 K, 25000 kPa | 0.7235 ± 0.016
303.18 K, 35000 kPa | 0.7739 ± 0.017
303.19 K, 15000 kPa | 0.6744 ± 0.015
303.19 K, 30000 kPa | 0.7502 ± 0.016
303.2 K, 10000 kPa | 0.6499 ± 0.014
313.08 K, 30000 kPa | 0.6722 ± 0.015
313.09 K, 20000 kPa | 0.6261 ± 0.014
313.1 K, 10000 kPa | 0.5812 ± 0.013
313.1 K, 25000 kPa | 0.649 ± 0.014
313.1 K, 35000 kPa | 0.694 ± 0.015
313.11 K, 5000 kPa | 0.5596 ± 0.013
313.12 K, 100 kPa | 0.5386 ± 0.012
313.12 K, 1000 kPa | 0.5427 ± 0.012
313.12 K, 15000 kPa | 0.6039 ± 0.013
322.97 K, 100 kPa | 0.4865 ± 0.011
322.97 K, 20000 kPa | 0.5648 ± 0.013
322.98 K, 1000 kPa | 0.4895 ± 0.011
322.98 K, 5000 kPa | 0.5042 ± 0.011
322.98 K, 10000 kPa | 0.5245 ± 0.012
322.98 K, 15000 kPa | 0.544 ± 0.012
322.98 K, 25000 kPa | 0.5856 ± 0.013
322.98 K, 30000 kPa | 0.606 ± 0.013
322.98 K, 35000 kPa | 0.6259 ± 0.014
332.91 K, 100 kPa | 0.4422 ± 0.01
332.91 K, 5000 kPa | 0.4595 ± 0.011
332.92 K, 1000 kPa | 0.4448 ± 0.01
332.92 K, 10000 kPa | 0.478 ± 0.011
332.92 K, 15000 kPa | 0.4961 ± 0.011
332.92 K, 20000 kPa | 0.5149 ± 0.012
332.92 K, 25000 kPa | 0.5331 ± 0.012
332.92 K, 30000 kPa | 0.5516 ± 0.012
332.92 K, 35000 kPa | 0.5706 ± 0.013
342.8 K, 1000 kPa | 0.4049 ± 0.0095
342.8 K, 10000 kPa | 0.4356 ± 0.01
342.8 K, 15000 kPa | 0.4524 ± 0.01
342.8 K, 20000 kPa | 0.4691 ± 0.011
342.8 K, 25000 kPa | 0.4869 ± 0.011
342.8 K, 30000 kPa | 0.5045 ± 0.011
342.8 K, 35000 kPa | 0.5223 ± 0.012
342.81 K, 100 kPa | 0.4022 ± 0.0095
342.81 K, 5000 kPa | 0.4186 ± 0.0098
352.72 K, 5000 kPa | 0.3851 ± 0.0091
352.72 K, 20000 kPa | 0.4335 ± 0.01
352.72 K, 35000 kPa | 0.4807 ± 0.011
352.73 K, 100 kPa | 0.3693 ± 0.0088
352.73 K, 1000 kPa | 0.372 ± 0.0089
352.73 K, 10000 kPa | 0.4003 ± 0.0094
352.73 K, 15000 kPa | 0.4164 ± 0.0097
352.73 K, 25000 kPa | 0.4495 ± 0.01
352.73 K, 30000 kPa | 0.4654 ± 0.011
362.66 K, 100 kPa | 0.339 ± 0.0083
362.66 K, 1000 kPa | 0.3418 ± 0.0083
362.66 K, 5000 kPa | 0.3538 ± 0.0086
362.66 K, 15000 kPa | 0.3838 ± 0.0091
362.66 K, 20000 kPa | 0.3986 ± 0.0094
362.66 K, 25000 kPa | 0.4137 ± 0.0097
362.66 K, 30000 kPa | 0.4289 ± 0.01
362.67 K, 10000 kPa | 0.3685 ± 0.0088
362.67 K, 35000 kPa | 0.4429 ± 0.01
372.59 K, 5000 kPa | 0.3272 ± 0.0081
372.59 K, 10000 kPa | 0.341 ± 0.0083
372.59 K, 15000 kPa | 0.3541 ± 0.0086
372.59 K, 20000 kPa | 0.3688 ± 0.0088
372.59 K, 25000 kPa | 0.3822 ± 0.0091
372.59 K, 30000 kPa | 0.3967 ± 0.0094
372.59 K, 35000 kPa | 0.4108 ± 0.0096
372.6 K, 1000 kPa | 0.3155 ± 0.0079
372.61 K, 100 kPa | 0.3127 ± 0.0078

Cc1ccc(C)cc1 [1,4-dimethylbenzene]
Conditions | viscosity [mPa·s]
293.03 K, 15000 kPa | 0.7277 ± 0.016
293.03 K, 20000 kPa | 0.7569 ± 0.017
293.03 K, 25000 kPa | 0.7883 ± 0.017
293.03 K, 30000 kPa | 0.8186 ± 0.018
293.04 K, 100 kPa | 0.6444 ± 0.015
293.04 K, 1000 kPa | 0.6494 ± 0.015
293.04 K, 5000 kPa | 0.672 ± 0.015
293.04 K, 10000 kPa | 0.6997 ± 0.016
302.86 K, 100 kPa | 0.5762 ± 0.013
302.86 K, 1000 kPa | 0.5804 ± 0.013
302.87 K, 5000 kPa | 0.5995 ± 0.014
302.87 K, 10000 kPa | 0.6244 ± 0.014
302.88 K, 15000 kPa | 0.6499 ± 0.015
302.88 K, 20000 kPa | 0.6747 ± 0.015
302.88 K, 25000 kPa | 0.7023 ± 0.016
302.89 K, 30000 kPa | 0.7274 ± 0.016
312.76 K, 100 kPa | 0.515 ± 0.012
312.76 K, 1000 kPa | 0.5186 ± 0.012
312.76 K, 15000 kPa | 0.5806 ± 0.013
312.76 K, 20000 kPa | 0.6027 ± 0.014
312.76 K, 25000 kPa | 0.6263 ± 0.014
312.76 K, 30000 kPa | 0.6494 ± 0.015
312.77 K, 5000 kPa | 0.5356 ± 0.012
312.77 K, 10000 kPa | 0.5575 ± 0.013
322.62 K, 100 kPa | 0.4653 ± 0.011
322.63 K, 1000 kPa | 0.4689 ± 0.011
322.64 K, 5000 kPa | 0.4833 ± 0.011
322.64 K, 10000 kPa | 0.5038 ± 0.012
322.64 K, 15000 kPa | 0.524 ± 0.012
322.64 K, 20000 kPa | 0.5442 ± 0.013
322.64 K, 25000 kPa | 0.5653 ± 0.013
322.65 K, 30000 kPa | 0.5861 ± 0.013
332.57 K, 30000 kPa | 0.5304 ± 0.012
332.58 K, 100 kPa | 0.4206 ± 0.01
332.58 K, 1000 kPa | 0.4237 ± 0.01
332.58 K, 5000 kPa | 0.4383 ± 0.01
332.58 K, 10000 kPa | 0.4564 ± 0.011
332.58 K, 15000 kPa | 0.4745 ± 0.011
332.58 K, 20000 kPa | 0.493 ± 0.011
332.58 K, 25000 kPa | 0.5109 ± 0.012
342.27 K, 100 kPa | 0.3815 ± 0.0093
342.27 K, 1000 kPa | 0.3842 ± 0.0093
342.28 K, 5000 kPa | 0.3977 ± 0.0096
342.28 K, 10000 kPa | 0.4144 ± 0.0099
342.28 K, 20000 kPa | 0.4482 ± 0.011
342.29 K, 15000 kPa | 0.4314 ± 0.01
342.29 K, 25000 kPa | 0.4649 ± 0.011
342.29 K, 30000 kPa | 0.4833 ± 0.011
352.2 K, 5000 kPa | 0.3634 ± 0.0089
352.2 K, 10000 kPa | 0.3791 ± 0.0092
352.2 K, 15000 kPa | 0.3945 ± 0.0095
352.2 K, 20000 kPa | 0.4111 ± 0.0098
352.2 K, 25000 kPa | 0.4263 ± 0.01
352.2 K, 30000 kPa | 0.4423 ± 0.01
352.21 K, 100 kPa | 0.3483 ± 0.0086
352.21 K, 1000 kPa | 0.3507 ± 0.0087
362.73 K, 100 kPa | 0.3194 ± 0.0081
362.74 K, 1000 kPa | 0.3217 ± 0.0081
362.75 K, 5000 kPa | 0.3331 ± 0.0083
362.76 K, 10000 kPa | 0.3467 ± 0.0086
362.76 K, 15000 kPa | 0.3616 ± 0.0089
362.77 K, 20000 kPa | 0.3756 ± 0.0092
362.81 K, 25000 kPa | 0.3915 ± 0.0095
362.82 K, 30000 kPa | 0.405 ± 0.0097
372.69 K, 20000 kPa | 0.348 ± 0.0086
372.69 K, 25000 kPa | 0.3614 ± 0.0089
372.69 K, 30000 kPa | 0.3752 ± 0.0091
372.7 K, 10000 kPa | 0.3203 ± 0.0081
372.7 K, 15000 kPa | 0.3341 ± 0.0084
372.71 K, 100 kPa | 0.2936 ± 0.0076
372.71 K, 1000 kPa | 0.296 ± 0.0076
372.71 K, 5000 kPa | 0.3061 ± 0.0078
